Data taken from patent US12246082B2, “Efficient sunscreen compositions with diethylamino hydroxybenzoyl hexyl benzoate and butyl methoxydibenzoylmethane free of octocrylene” (BASF SE, priority 2019, dated 2025).
Structures can show the parent of a compound that is named as a salt.

How the values were obtained:
[1] = Measurement of interfacial tension (polarity index) of emollients; format: physicochemical; conditions: Tensimat Densimat TD2000
Description: The term “polarity index” refers to non-polar or polar oils. Non-polar oils are mainly based on hydrocarbons and lack an electronegative element, such as oxygen. In contrast, polar oils contain heteroatoms that differ in electronegativity, which results in a dipole moment. However, such oils are still insoluble in water, i.e. hydrophob. The polarity index can be determined by measuring the interfacial tension between the respective oil and water.
Interfacial tension of the respective emollients as listed below was measured using a Tensimat Densimat TD2000.

[2] = stated in the description; cited from earlier work
[3] = Solubility measurements of UV filter in emollients; format: physicochemical; conditions: 25° C., seven days
Description: The vial is placed in a thermostated water bath (25° C.) and the blend is stirred for seven days. If the tested UV-filter is fully soluble, additional filter is added until precipitation is observed. After seven days, the sample is centrifuged for 30 minutes at 13000 rpm. If the supernatant is turbid, it is filtered through a 0.2 μm non steril Membrex 25 PET filter.

CC(C)OC(=O)CCCCC(=O)OC(C)C [diisopropyl adipate]
polarity index [1]: 12 mN/m

CCOC(=O)CC(O)(CC(=O)OCC)C(=O)OCC [triethyl citrate]
polarity index [1]: 7 mN/m

CCCCOC(=O)CC(O)(CC(=O)OCCCC)C(=O)OCCCC [tributyl citrate]
polarity index [1]: 10 mN/m

CCCCC(CC)COC(=O)c1ccc(Nc2nc(Nc3ccc(C(=O)NC(C)(C)C)cc3)nc(Nc3ccc(C(=O)OCC(CC)CCCC)cc3)n2)cc1 (centres unmarked) [diethylhexyl-butamidotriazone, 4,4′-[[6-[[4-[[(1,1-dimethylethyl)amino]carbonyl]phenyl]amino]-1,3,5-triazin-2,4-diyl]diimino]bis-benzoic acid-bis(2-ethylhexyl)ester]
absorption maximum [2]: 310 nm

CCCCCCOC(=O)c1ccccc1C(=O)c1ccc(N(CC)CC)cc1O [DHHB, hexyl 2-[4-(diethylamino)-2-hydroxybenzoyl]benzoate]
solubility ([3]; in C12-15 alkyl benzoate): 22% | solubility ([3]; in butylene glycol dicaprylate/dicaprate): 23% | solubility ([3]; in caprylic capric triglyceride): 14% | solubility ([3]; in cyclomethicone): <1% | solubility ([3]; in dibutyl adipate): 31% | solubility ([3]; in diisopropyl adipate): 21% | solubility ([3]; in diisopropyl sebacate): 41% | solubility ([3]; in hydrogenated polyisobutene): <1% | solubility ([3]; in mineral oil): <1% | solubility ([3]; in octyldodecanol): 2.5% | solubility ([3]; in phenethyl benzoate): 57% | solubility ([3]; in propylene glycol dicaprylate/dicaprate): 22% | solubility ([3]; in tributyl citrate): 29.4% | solubility ([3]; in triethyl citrate): 29% | absorption maximum [2]: 354 nm

COc1ccc(C(=O)CC(=O)c2ccc(C(C)(C)C)cc2)cc1 [BMDBM, 1-(4-(1,1-dimethylethyl)phenyl)-3-(4-methoxyphenyl)propane-1,3-dione]
absorption maximum [2]: 357 nm

C[Si]1(C)O[Si](C)(C)O[Si](C)(C)O[Si](C)(C)O[Si](C)(C)O1 [cyclopentasiloxane]
polarity index [1]: 32 mN/m

CCCCOC(=O)CCCCC(=O)OCCCC [dibutyl adipate]
polarity index [1]: 14 mN/m

CCCCC(CC)COC(=O)/C=C/c1ccc(OC)cc1 (centres unmarked) [ethylhexyl methoxy cinnamate, 2-Ethylhexyl-(2E)-3-(4-methoxyphenyl)acrylate]
absorption maximum [2]: 310 nm

O=C(OCCc1ccccc1)c1ccccc1 [phenethyl benzoate]
polarity index [1]: 19 mN/m

CC(C)OC(=O)CCCCCCCCC(=O)OC(C)C [diisopropyl sebacate]
polarity index [1]: 19 mN/m

CCCCCCCCCCC(CO)CCCCCCCC (centres unmarked) [octyldodecanol]
polarity index [1]: 25 mN/m
